Reference: the SangsterLogP compilation

Going from `O=[N+]([O-])c1cc[n+]([O-])c2ccccc12` to `O=[N+]([O-])c1cc[n+]([O-])c2ccc(Cl)cc12`, the logP rises from 1.09 to 1.41.

Going from `Brc1ccncc1` to `CC(=O)c1ccncc1`, the logP falls from 1.54 to 0.48.

Compared with `N#Cc1ccc([N+](=O)[O-])cc1`, `Cc1ccc([N+](=O)[O-])cc1` is higher in logP: 1.19 for the first, 2.37 for the second.

Going from `O=[N+]([O-])c1ccc2c(ccc[n+]2[O-])c1` to `Cc1cccc2c1c([N+](=O)[O-])cc[n+]2[O-]`, the logP rises from 0.39 to 1.36.

First: c1ccc2[nH]ccc2c1
Second: Cc1ccc2[nH]ccc2c1
The logP of the first is lower: 2.14 for the first, 2.68 for the second.

First: O=C(O)c1cccc(F)c1
Second: O=C(O)c1cccc(Cl)c1
The logP of the first is lower: 2.15 for the first, 2.68 for the second.

First: CCN(CC)CCOC(=O)c1ccc(N)cc1
Second: COc1ccc(C(C)=O)cc1
The logP of the first is higher: 2.14 for the first, 1.74 for the second.

`c1ccc(Cc2ccccc2)cc1` and `c1ccc(-c2ccccc2)cc1` are within 0.2 log units of each other in logP: 4.14 for the first, 3.98 for the second.

First: O=C(O)Cc1ccc(F)cc1
Second: O=C(O)Cc1ccc(Cl)cc1
The logP of the first is lower: 1.55 for the first, 2.12 for the second.

Going from `O=S(c1ccccc1)c1ccccc1` to `CN(c1ccccc1)c1ccccc1`, the logP rises from 2.06 to 3.9.

First: CCN(CC)CC
Second: CCCC
The logP of the first is lower: 1.45 for the first, 2.89 for the second.

Compared with `Cn1c([N+](=O)[O-])cnc1/C=C/c1ccnc(N)n1`, `Nc1cccc([N+](=O)[O-])c1` is higher in logP: 0.85 for the first, 1.37 for the second.

Going from `CC1(C)SC2C(NC(=O)C(N)c3ccc(O)cc3)C(=O)N2C1C(=O)O` (stereo not drawn) to `CC1(C)S[C@@H]2[C@H](NC(=O)[C@H](N)c3ccccc3)C(=O)N2[C@H]1C(=O)O`, the logP rises from 0.87 to 1.35.

Compared with `Nc1ccccc1`, `NS(=O)(=O)c1ccccc1` is lower in logP: 0.9 for the first, 0.31 for the second.

Going from `Clc1ccccc1-c1ccccc1` to `Oc1ccc(-c2ccccc2)cc1`, the logP falls from 4.53 to 3.2.

Going from `c1ccc2nc3ccccc3cc2c1` to `c1ccc2c(c1)[nH]c1ccccc12`, the logP rises from 3.4 to 3.72.

First: c1ccc2occc2c1
Second: c1ccc2[nH]ncc2c1
The logP of the first is higher: 2.67 for the first, 1.77 for the second.

First: CCOc1cccc(OC(=O)NC)c1
Second: CCc1cccc(OC(=O)NC)c1
The logP of the first is lower: 1.75 for the first, 2.2 for the second.

Going from `CC(=O)OC1C(Cl)C(Cl)C(Cl)C(Cl)C1Cl` (stereo not drawn) to `CC(=O)Oc1cccc(O)c1`, the logP falls from 3.4 to 1.23.

Going from `Oc1ncnc2[nH]ncc12` to `Oc1ncnc2[nH]cnc12`, the logP falls from -0.55 to -1.11.

Going from `CCCCCC1Nc2cc(C(F)(F)F)c(S(N)(=O)=O)cc2S(=O)(=O)N1` (stereo not drawn) to `CCCCc1ccc(S(N)(=O)=O)cc1`, the logP falls from 2.66 to 2.45.

Going from `Cc1ccc(O)c(C)c1` to `Cc1ccc(C)c(C)c1`, the logP rises from 2.3 to 3.63.

Compared with `Cc1cn([C@H]2C[C@H](F)[C@@H](CO)O2)c(=O)[nH]c1=O`, `Cc1cn([C@H]2C[C@H](O)[C@@H](CO)O2)c(=O)[nH]c1=S` is higher in logP: -0.28 for the first, -0.07 for the second.

`CC(=O)c1ccccc1O` and `Cc1ccccc1O` are within 0.2 log units of each other in logP: 1.92 for the first, 1.95 for the second.

Going from `NCCc1c[nH]cn1` to `NCCc1c[nH]c2ccccc12`, the logP rises from -0.7 to 1.55.

Compared with `C#CC`, `CCCl` is higher in logP: 0.94 for the first, 1.43 for the second.

Compared with `O=C1C=CC(=NO)C=C1`, `O=C(O)c1ccccc1Cl` is higher in logP: 1.08 for the first, 2.05 for the second.

Going from `CCc1ccc(O)cc1` to `Oc1ccc(I)cc1`, the logP rises from 2.58 to 2.91.

Going from `O=NN1CCOCC1` to `O=NN1CCCCC1`, the logP rises from -0.44 to 0.36.

`c1ccc2[nH]cnc2c1` and `c1ccc2nccnc2c1` are the same in logP: 1.32 for the first, 1.32 for the second.

Going from `O=c1cn[nH]c(=O)[nH]1` to `CCC1(CC)C(=O)NC(=O)NC1=O`, the logP rises from -0.59 to 0.65.

Going from `O=c1ccn([C@@H]2O[C@H](CO)[C@@H](O)[C@H]2O)c(=O)[nH]1` to `O=c1ccn([C@H]2C[C@H](O)[C@@H](CO)O2)c(=O)[nH]1`, the logP rises from -1.98 to -1.51.

First: C=CCOc1cc(C(=O)O)ccc1N
Second: COc1ccc(C(=O)O)cc1
The logP of the first is lower: 1.25 for the first, 1.96 for the second.

Going from `c1cncc([C@@H]2CCCCN2)c1` to `NC(=O)c1cccnc1`, the logP falls from 0.97 to -0.37.

`COc1ccc(NC(C)=O)cc1` and `CNC(=O)Oc1ccc(OC)cc1` are within 0.2 log units of each other in logP: 1.03 for the first, 1.2 for the second.

Compared with `COc1ccc(CN(CCN(C)C)c2ccccn2)cc1`, `COc1ccc2c(c1)N(CCCN(C)C)c1ccccc1S2` is higher in logP: 3.27 for the first, 4.9 for the second.

First: O=C(c1ccccc1)c1ccc(O)cc1
Second: O=C(Oc1ccccc1)c1ccccc1
The logP of the first is lower: 3.07 for the first, 3.59 for the second.

Going from `CCCC(CO)n1cnc2c(N)ncnc21` (stereo not drawn) to `Nc1ncnc2c1ncn2[C@@H]1O[C@H](CO)[C@@H](O)[C@H]1O`, the logP falls from 0.66 to -1.05.

Compared with `CNC(=O)Oc1ccc(C)c(C)c1`, `CNC(=O)Oc1cccc(I)c1` is higher in logP: 2.09 for the first, 2.52 for the second.

Going from `O=C(O)c1ccc(N=C=S)cc1` to `N#Cc1ccc(OCC(=O)O)cc1`, the logP falls from 3.52 to 0.93.

Compared with `CCc1ccccc1Cl`, `NS(=O)(=O)c1ccccc1Cl` is lower in logP: 2.95 for the first, 0.74 for the second.

Going from `Cc1c(Cl)cccc1Nc1ccccc1C(=O)O` to `O=C(O)c1cccc2ccccc12`, the logP falls from 5.17 to 3.1.

Compared with `C=CCOc1ccccc1OCC(O)CNC(C)C` (stereo not drawn), `CC(C)NCC(O)COc1cccc2[nH]ccc12` (stereo not drawn) is lower in logP: 2.1 for the first, 1.75 for the second.

Going from `FC(F)(F)c1nc2cc(Cl)c(Cl)cc2[nH]1` to `Oc1cc(Cl)c(Cl)cc1Cl`, the logP rises from 3.49 to 3.72.

Going from `COc1cccc(O)c1` to `COc1cccc(N)c1`, the logP falls from 1.34 to 0.93.

Compared with `C=CCC1(CC)C(=O)NC(=O)NC1=O`, `C=CCC1(CCCC)C(=O)NC(=O)NC1=O` is higher in logP: 0.95 for the first, 2.31 for the second.

Compared with `Oc1ccccn1`, `O=[N+]([O-])c1ccccc1O` is higher in logP: -0.58 for the first, 1.79 for the second.

Compared with `CSc1ccc2c(c1)N(CCC1CCCCN1C)c1ccccc1S2` (stereo not drawn), `OCCN1CCN(CC/C=C2\c3ccccc3Sc3ccc(Cl)cc32)CC1` is lower in logP: 5.9 for the first, 4.18 for the second.

Going from `CCCCNCCC` to `C=CCNCCC`, the logP falls from 2.12 to 1.33.

Going from `Cc1ncc(CO)c(CO)c1O` to `Nc1nc(O)c2ncn([C@H]3CC[C@@H](CO)O3)c2n1`, the logP falls from -0.77 to -1.01.

Going from `CC/C(=C(/CC)c1ccc(O)cc1)c1ccc(O)cc1` to `Nc1ccc(-c2ccc(N)cc2)cc1`, the logP falls from 5.07 to 1.34.

`CC(=O)C=Cc1ccccc1` and `OCC=Cc1ccccc1` are within 0.2 log units of each other in logP: 2.07 for the first, 1.95 for the second.

Going from `FC(F)(Cl)C(F)(F)Cl` to `NCC(F)(F)F`, the logP falls from 2.82 to 0.24.

`CCOC(C)OCC` and `CC(C)CO` are within 0.2 log units of each other in logP: 0.84 for the first, 0.76 for the second.

`O=C(O)CCc1ccccc1` and `OCCCc1ccccc1` are within 0.2 log units of each other in logP: 1.84 for the first, 1.88 for the second.

Going from `Oc1cccc(O)c1` to `Nc1cccc(O)c1`, the logP falls from 0.8 to 0.21.

First: CCC(C)c1ccccc1OC(=O)NC (stereo not drawn)
Second: COc1ccccc1NC(C)=O
The logP of the first is higher: 2.78 for the first, 0.67 for the second.

First: Oc1c(Br)cc(Br)cc1Br
Second: O=C(O)c1cc(Br)ccc1O
The logP of the first is higher: 4.13 for the first, 3.23 for the second.

First: O=C1[C@H]2CC=CC[C@H]2C(=O)N1SC(Cl)(Cl)Cl
Second: CC(=O)C(C#N)=NNc1cc(Cl)cc(Cl)c1
The logP of the first is lower: 2.8 for the first, 4.68 for the second.

`FCF` and `OCCBr` are within 0.2 log units of each other in logP: 0.2 for the first, 0.23 for the second.

Going from `C1CCCC1` to `C1CCOC1`, the logP falls from 3 to 0.46.

Going from `Fc1c(F)c(F)c(F)c(F)c1F` to `Cc1c(C)c(C)c(C)c(C)c1C`, the logP rises from 2.55 to 5.11.

Going from `CNCc1ccccc1` to `OCCCCc1ccccc1`, the logP rises from 1.52 to 2.35.

Compared with `CN(C)C(=O)Nc1ccc(Cl)cc1`, `CC(=O)N(C)c1ccccc1` is lower in logP: 1.94 for the first, 1.12 for the second.

Going from `CCCC(C)=O` to `CCCCCC(C)=O`, the logP rises from 0.91 to 1.98.

First: O=C1CN=C(c2ccccc2)c2cc([N+](=O)[O-])ccc2N1
Second: O=[N+]([O-])c1cccc2ccccc12
The logP of the first is lower: 2.25 for the first, 3.19 for the second.

Going from `CCOc1ccc([N+](=O)[O-])cc1` to `CNC(=O)Oc1cccc([N+](=O)[O-])c1`, the logP falls from 2.53 to 1.39.

Going from `CC(O)Cn1cnc2c1c(=O)n(C)c(=O)n2C` (stereo not drawn) to `CN(C)CCN1C(=O)c2ccccc2N(C)c2ccccc21`, the logP rises from -0.77 to 2.5.

Compared with `CC/C(=C/c1ccccc1)[N+](=O)[O-]`, `O=C(O)CSc1ccccc1` is lower in logP: 2.86 for the first, 1.91 for the second.

Going from `COC(=O)C(C#N)=NNc1ccc(S(=O)(=O)C(F)(F)F)cc1` to `COC(=O)C(C#N)=NNc1ccc(Cl)c(C(F)F)c1`, the logP falls from 4.22 to 3.8.

Compared with `O=C(O)c1c(O)cccc1O`, `O=C(O)c1ccccc1I` is higher in logP: 2.2 for the first, 2.4 for the second.

First: Cc1cc(=O)oc2cc(O)ccc12
Second: Cc1cccc(C)c1O
The logP of the first is lower: 1.9 for the first, 2.36 for the second.

Going from `NNC(=O)c1ccnc(Cl)c1` to `Cc1cc(C(=O)NN)ccn1`, the logP falls from 0.11 to -0.37.

First: c1cn[nH]c1
Second: Nc1cccc2ncccc12
The logP of the first is lower: 0.26 for the first, 1.16 for the second.

Going from `CSc1nnc(-c2ccccc2)c(=O)n1N` to `O=C1c2ccccc2C(=O)C1c1ccccc1`, the logP rises from 1.66 to 2.9.

Compared with `NS(=O)(=O)c1ccccc1[N+](=O)[O-]`, `Cc1ccc(S(N)(=O)=O)cc1` is higher in logP: 0.34 for the first, 0.82 for the second.

Going from `CNC(=O)Oc1ccc2c(c1)[C@]1(C)CCN(C)[C@@H]1N2C` to `CNC(=O)Oc1cccc(C(C)=O)c1`, the logP falls from 1.58 to 0.9.

Compared with `COc1ccc2[nH]ccc2c1`, `FC(F)(F)c1ccc2cccnc2c1` is higher in logP: 2.06 for the first, 3.02 for the second.

Compared with `N=c1ccn(O)c2ccccc12`, `N#Cc1ccccc1O` is higher in logP: 0.05 for the first, 1.61 for the second.

Going from `C/C=N/O` to `COP(=O)(OC)OC=C(Cl)Cl`, the logP rises from -0.13 to 1.47.

Compared with `FC(F)(F)c1ccccc1`, `O=C(NC(O)Cc1ccc([N+](=O)[O-])cc1)C(F)(F)F` (stereo not drawn) is lower in logP: 3.01 for the first, 1.46 for the second.

Compared with `COC(=O)C(C#N)=NNc1c(Cl)cc(C(F)(F)F)cc1Cl`, `CCOC(=O)C(C#N)=NNc1cc(Cl)cc(Cl)c1` is lower in logP: 4.36 for the first, 3.82 for the second.

`Nc1nc(S)c2nc[nH]c2n1` and `Nc1ccc(S(=O)(=O)Nc2nccs2)cc1` are within 0.2 log units of each other in logP: -0.07 for the first, 0.05 for the second.

First: CNC1(c2ccccc2Cl)CCCCC1=O (stereo not drawn)
Second: O=C1CC2OCC=C3CN4CC[C@]56c7ccccc7N1C5[C@H]2[C@H]3C[C@H]46 (stereo partly drawn)
The logP of the first is higher: 2.18 for the first, 1.93 for the second.

First: N#Cc1cccs1
Second: Cc1cccc(C)c1C
The logP of the first is lower: 1.27 for the first, 3.66 for the second.

First: O=C(O)c1cc(I)cc(I)c1O
Second: NC(=O)c1ncccc1O
The logP of the first is higher: 4.56 for the first, 0.65 for the second.

Compared with `NCCCC[C@H](N)C(=O)O`, `NC(N)=O` is higher in logP: -3.05 for the first, -2.11 for the second.

`Cc1ccc(Cc2cnc(NCCSCc3ccc(C(C)(C)N)o3)[nH]c2=O)cn1` and `CCCC(C)C1(CC)C(=O)NC(=O)NC1=O` (stereo not drawn) are within 0.2 log units of each other in logP: 2.06 for the first, 2.1 for the second.

First: NS(=O)(=O)c1ccc(Cl)c(Cl)c1
Second: CC(=O)C(C#N)=NNc1ccc([N+](=O)[O-])cc1[N+](=O)[O-]
The logP of the first is lower: 1.44 for the first, 3.4 for the second.
